Source: PubChem BioAssay (NCI)
Where “and” joins values, the source holds several entries; their conditions need not be identical. Equal entries are not always repeated.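 The compound was tested at five concentrations on cells cultured in 96-well plates, with a 48-hour exposure period. The concentration for 50% growth inhibition is given as GI50. At the TGI there is no net growth.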

How the values were obtained:
Assay in all cases: DTP human tumour cell line panel, 48 h
[1] = tested on: MDA-MB-435
[2] = tested on: UACC-257 melanoma
[3] = tested on: RPMI-8226 leukemia
[4] = tested on: BT-549 breast
[5] = tested on: HL-60(TB) leukemia
[6] = tested on: SK-MEL-2 melanoma
[7] = tested on: T-47D breast
[8] = tested on: SF-268 CNS
[9] = tested on: MALME-3M melanoma
[10] = tested on: EKVX NSCLC

Compound | GI50 [1] | TGI [1] | GI50 [2] | TGI [2] | GI50 [3] | TGI [3] | GI50 [4] | TGI [4] | GI50 [5] | TGI [5] | GI50 [6] | TGI [6] | GI50 [7] | TGI [7] | GI50 [8] | TGI [8] | GI50 [9] | TGI [9] | GI50 [10] | TGI [10]
Oc1c(C(Nc2ccccn2)c2cccc(Oc3ccccc3)c2)ccc2cccnc12 (stereo unspecified) | 0.496 µM | 16.4 µM | 1.32 µM | 15 µM | 0.6 µM | 84 µM | 0.479 µM | 13 µM | 0.432 µM | 37 µM | 1.68 µM | 21 µM | 0.785 µM | 33.2 µM | 0.518 µM | 14.3 µM | 0.806 µM | 19.7 µM |  | 
O=C(c1ccccc1)C(Cl)C(Cl)c1ccccc1 (stereo unspecified) | 2.26 µM | 5.56 µM |  |  | 2.27 µM | 7.08 µM | 2.55 µM | 6.12 µM | 3.04 µM | 8.58 µM | 3.55 µM | 9.33 µM | 2.74 µM | 11.3 µM | 4.71 µM | 17.3 µM |  |  | 5.24 µM | 18.9 µM
O=Cc1cccc2ccc3ccccc3c12 |  | 49.6 µM |  | > 100 µM |  |  |  | 96.9 µM |  |  |  | 38 µM |  | 92.4 µM |  | 43.1 µM |  | 49.7 µM |  | 
O=C(/C=C/C12c3ccccc3C(c3ccccc31)C1C(=O)N(c3ccc(Cl)cc3)C(=O)C12)c1ccccn1 (stereo unspecified) | 0.301 µM | 0.981 µM | 0.39 µM | 1.96 µM | 0.234 µM | 0.682 µM | 0.171 µM | 0.365 µM | 0.24 µM | 1.35 µM | 0.529 µM | 2.74 µM | 0.312 µM | 4.15 µM | 0.672 µM | > 28.8 µM | 0.242 µM | 0.639 µM | 0.381 µM | 2.38 µM
N#CC(C#N)=NNc1ccc2cn[nH]c2c1 |  | > 100 µM |  | 60.2 µM |  | 65.4 µM |  | > 100 µM |  | 45.3 µM |  | > 100 µM |  | > 100 µM |  | > 100 µM |  | 69.5 µM |  | > 100 µM
O=C(CCCn1c2c(sc3ccccc32)c(=O)n2nnc(-c3ccccc3)c12)NCCc1cnc[nH]1 | 0.345 µM | 1.87 µM | 2.2 µM | 4.39 µM |  |  | 6.9 µM | 18.2 µM | 0.0724 µM | 3.21 µM | 2.37 µM | 4.98 µM | 0.638 µM | 10.5 µM | 1.8 µM | 4.35 µM | 1.88 µM | 3.58 µM | 3.52 µM | 18.6 µM
O=C1Nc2ccccc2/C1=C\c1c(-c2ccccc2)nc2sccn12 | 0.354 µM | 0.943 µM | 14.9 µM | 41 µM | 0.909 µM | 3.74 µM | 3.3 µM | 16.9 µM | 0.999 µM | 7.33 µM | 5.87 µM | 22.6 µM | 2.65 µM | > 33 µM | 5.86 µM | 57.1 µM | 1.92 µM | 21.7 µM | 7.84 µM | 32.6 µM
C[C@@H](N)COc1ccc(-c2cnc3ccc(N[C@H](C)c4cccc(F)c4)nn23)cc1 | 1.47 µM | 3.07 µM | 1.62 µM | 3.11 µM | 1.81 µM | 5.3 µM | 1.68 µM | 3.33 µM | 1.81 µM | 3.74 µM | 1.99 µM | 4.48 µM | 1.5 µM | 3.35 µM | 1.85 µM | 6.38 µM | 1.33 µM | 2.62 µM | 2.71 µM | 12.6 µM
O=C(Cn1c(C(=O)c2ccc(Cl)cc2)nc(-c2ccc(Cl)cc2)c1-c1ccc(Cl)cc1)c1ccccc1 | > 100 µM | > 100 µM | > 100 µM | > 100 µM | > 100 µM | > 100 µM | > 100 µM | > 100 µM | > 100 µM | > 100 µM | > 100 µM | > 100 µM | > 100 µM | > 100 µM | > 100 µM | > 100 µM | > 100 µM | > 100 µM | > 100 µM | > 100 µM
Fc1cc(F)c(F)c(S)c1F |  | > 100 µM |  | > 100 µM |  | > 100 µM |  | 52 µM |  | > 100 µM |  | > 100 µM |  | > 100 µM |  | > 100 µM |  | > 100 µM |  | 55.2 µM
CC(=O)OCC12CN(C#N)C3C4COC(CC41)C1(C(=O)N(C)c4ccccc41)C32 (stereo unspecified) |  | > 100 µM |  | 51.8 µM |  | > 100 µM |  | 10.5 µM |  | 30.7 µM |  | 63.6 µM |  | 62.7 µM |  | > 100 µM |  | 54.1 µM |  | 88.9 µM
Oc1cc(N2CC2)c(O)cc1N1CC1 | 1.37 µM | 3.32 µM | 0.851 µM | 2.98 µM | 1.53 µM | 9.74 µM | 1.84 µM | 5.96 µM | 0.238 µM | 2.14 µM | 1.46 µM | 4.55 µM | 1.1 µM | 6.48 µM | 0.585 µM | 7.97 µM | 0.217 µM | 0.55 µM | 2.62 µM | 9.87 µM
COc1ccc2c(c1)CC[C@@H]1C2CC[C@]2(C)C(=O)N(CCN(C)C)C(=O)CC12 (stereo partly specified) |  | > 100 µM |  | > 100 µM |  |  |  | > 100 µM |  | > 100 µM |  |  |  | > 100 µM |  | > 100 µM |  | > 100 µM |  | > 100 µM
CN1CCN(Cc2ccc(NC(=O)c3cncc(C#Cc4c(N)ncc5ccc(C#N)cc45)c3)cc2C(F)(F)F)CC1 | 0.333 µM | 1.07 µM | 0.483 µM | 1.78 µM | 1.01 µM | 2.47 µM | 6.46 µM | 14.8 µM | 1.4 µM | 50 µM | 2.44 µM | 9.56 µM | 1.23 µM | 5.85 µM | 0.91 µM | 1.89 µM | 0.0477 µM | 0.331 µM | 0.791 µM | 1.57 µM
N#Cc1c(NCc2ccccc2)nc(NCc2ccccc2)c(C#N)c1-c1ccc(Cl)cc1 | > 50 µM and 43.6 µM | > 100 µM | > 100 µM | > 100 µM | > 50 µM and 50.3 µM | > 100 µM | 63.6 µM | > 100 µM | > 50 µM | > 50 µM |  | > 50 µM and 30.4 µM | > 100 µM | > 100 µM | > 50 µM and 25.4 µM | > 50 µM and 80 µM | > 100 µM | > 100 µM | 50.8 µM | > 100 µM
